Inhibition data for nine molecules are collected here from patent EP4786487A1, “PEPTIDE” (Peptidream Inc, priority 2023, dated 2025).

A word on the inhibition: it is the drop in the measured response relative to a control, in per cent.

Assay [1] has as its target T1, GDF-11 (Homo sapiens, UniProt O95390).
T1 construct: purchased R&D systems 1958-GD-G8/CF
T1 sequence (O95390 299-407): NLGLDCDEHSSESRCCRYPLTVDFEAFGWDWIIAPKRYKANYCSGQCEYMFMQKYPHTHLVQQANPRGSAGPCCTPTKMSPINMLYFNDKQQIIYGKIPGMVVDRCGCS
The assay is described as follows: HepG2 reporter gene assay, Evaluation Procedure (2): 2-concentrations assay, GDF-11 inhibition. The assay is classed as cell-based. To be noted: GDF-11 10 ng/mL; for inhibition at 0.03 µM: HepG2, peptide 30nM, read-out: GDF11 Inhibition 30nM; for inhibition at 0.1 µM: HepG2, peptide 100nM, read-out: GDF11 Inhibition 100nM. Put shortly: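 HepG2 cells carrying the transfected pGL3(CAGA)12-luc reporter, a pGL3 vector with luciferase placed downstream of 12 CAGA repeats, were stimulated with GDF-11 at a final 10 ng/mL together with test peptide. Blank wells received no GDF-11 and no peptide. Plates were incubated 20 to 24 hours at 37°C with 5% CO2. Luminescence from One-Glo substrate was read to calculate percent inhibition.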
(In general: A reporter such as luciferase makes a cellular process visible.)

Assay [2] deals with T2, Myostatin (Homo sapiens, UniProt O14793).
T2 construct: active myostatin (also called mature myostatin) is a homodimer consisting of two C-terminal growth factor domains; purchased R&D systems 788-G8/CF
T2 sequence (O14793 267-375): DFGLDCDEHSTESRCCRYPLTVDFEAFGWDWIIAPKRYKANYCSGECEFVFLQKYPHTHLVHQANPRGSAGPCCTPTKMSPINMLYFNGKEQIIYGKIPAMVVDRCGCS
The assay is described as follows: HepG2 reporter gene assay, Evaluation Procedure (2): 2-concentrations assay, myostatin inhibition. The assay is classed as cell-based. To be noted: Myostatin 10 ng/mL, HepG2; for inhibition at 0.03 µM: peptide 30nM, read-out: Myostatin Inhibition 30nM; for inhibition at 0.1 µM: peptide 100nM, read-out: Myostatin Inhibition 100nM. The procedure, abridged:
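HepG2 cells (HB-8065, ATCC) carrying the transfected pGL3(CAGA)12-luc reporter plasmid were treated with myostatin (788-G8/CF, R&D systems) at a final concentration of 10 ng/mL plus peptide and incubated at 37°C, 5% CO2 for 20 to 24 hours. Luminescence was read after adding PBS mixed 1:1 with One-Glo substrate, and inhibition rate was calculated.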

Positions of bridges follow the written chain, without caps; N, C: chain ends. Non-standard residues stand in square brackets, D forms with d. Residues, ends and D or L forms follow the SMILES beside them. Phe(4-COOH) = N[C@@H](Cc1ccc(C(=O)O)cc1)C(=O)O; Trp(7-aza) = N[C@@H](Cc1c[nH]c2ncccc12)C(=O)O; 3Pal(6-NH2) = Nc1ccc(C[C@H](N)C(=O)O)cn1; Gly(N(CH2)3COOH) = O=C(O)CCCNCC(=O)O; NMeF = CN[C@@H](Cc1ccccc1)C(=O)O; 3Pal = N[C@@H](Cc1cccnc1)C(=O)O; 4Pal = N[C@@H](Cc1ccncc1)C(=O)O; NMeA = CN[C@@H](C)C(=O)O; Sar = CNCC(=O)O

`CC[C@H](C)[C@@H]1NC(=O)[C@H](Cc2ccccc2)N(C)C(=O)[C@H](Cc2ccc(N)nc2)NC(=O)[C@H](Cc2c[nH]c3ccccc23)NC(=O)[C@H](C)NC(=O)CN(CCCC(=O)O)C(=O)CSC[C@H](C(N)=O)NC(=O)[C@H](Cc2ccccc2)N(C)C(=O)[C@H](C)N(C)C(=O)[C@H](CC(C)C)NC(=O)[C@H](Cc2ccccc2)N(C)C(=O)[C@H](CCCNC(=N)N)NC(=O)[C@H](Cc2ccc(C(=O)O)cc2)NC(=O)[C@H](Cc2ccncc2)NC(=O)CN(C)C1=O` [Myostatin_99_Variant_25] ({CH2CO}-[Gly(N(CH2)3COOH)]AW[3Pal(6-NH2)][NMeF]I[Sar][4Pal][Phe(4-COOH)]R[NMeF]L[NMeA][NMeF][dC]-NH2; thioether N-15): in assay [1], the inhibition at 0.03 µM was determined as 0% and the inhibition at 0.1 µM was determined as 0%. In addition, in assay [2], the inhibition at 0.03 µM came out at 20% and the inhibition at 0.1 µM amounted to 50%.

For the molecule `CC[C@H](C)[C@@H]1NC(=O)[C@H](Cc2ccccc2)N(C)C(=O)[C@H](Cc2ccc(N)nc2)NC(=O)[C@H](Cc2c[nH]c3ccccc23)NC(=O)[C@H](C)NC(=O)CN(CCCC(=O)O)C(=O)CSC[C@H](C(N)=O)NC(=O)[C@H](Cc2ccccc2)N(C)C(=O)[C@H](C)N(C)C(=O)[C@H](CC(C)C)NC(=O)[C@H](Cc2ccccc2)N(C)C(=O)[C@H](CCCNC(=N)N)NC(=O)[C@H](Cc2cccnc2)NC(=O)[C@H](Cc2ccccc2)NC(=O)CN(C)C1=O` [Myostatin_99_Variant_26] ({CH2CO}-[Gly(N(CH2)3COOH)]AW[3Pal(6-NH2)][NMeF]I[Sar]F[3Pal]R[NMeF]L[NMeA][NMeF][dC]-NH2; thioether N-15), in assay [1], the inhibition at 0.03 µM came to 0% and the inhibition at 0.1 µM was found to be 0%. Besides, in assay [2], the inhibition at 0.03 µM came to 26% and the inhibition at 0.1 µM is 50%.

Consider `CC[C@H](C)[C@@H]1NC(=O)[C@H](Cc2ccccc2)N(C)C(=O)[C@H](Cc2ccc(O)cc2)NC(=O)[C@H](Cc2c[nH]c3ccccc23)NC(=O)[C@H](C)NC(=O)CN(CCCC(=O)O)C(=O)CSC[C@H](C(=O)NCC(=O)N[C@H](CCC(=O)O)C(=O)NCC(=O)N[C@H](CCCCN)C(=O)O)NC(=O)[C@H](Cc2ccccc2)N(C)C(=O)[C@H](C)N(C)C(=O)[C@H](CC(C)C)NC(=O)[C@H](Cc2ccccc2)N(C)C(=O)[C@H](CCCNC(=N)N)NC(=O)[C@H](Cc2ccc(C(=O)O)cc2)NC(=O)[C@H](Cc2ccc(O)cc2)NC(=O)CN(C)C1=O` [Myostatin_99_v27] ({CH2CO}-[Gly(N(CH2)3COOH)]AWY[NMeF]I[Sar]Y[Phe(4-COOH)]R[NMeF]L[NMeA][NMeF][dC]G[dE]G[dK]-OH; thioether N-15), for which the figures for the inhibition at 0.03 µM in assay [1] and in assay [2] were 0% and 24%, respectively. The inhibition at 0.1 µM was 0% in assay [1] and 54% in assay [2].

`CC[C@H](C)[C@@H]1NC(=O)[C@H](Cc2ccccc2)N(C)C(=O)[C@H](Cc2ccc(O)cc2)NC(=O)[C@H](Cc2c[nH]c3ncccc23)NC(=O)[C@H](C)NC(=O)[C@H](C)NC(=O)CSC[C@H](C(=O)NCC(=O)N[C@H](CCC(=O)O)C(=O)NCC(=O)N[C@H](CCCCN)C(=O)O)NC(=O)[C@H](Cc2ccccc2)N(C)C(=O)[C@H](C)N(C)C(=O)[C@H](CC(C)C)NC(=O)[C@H](Cc2ccccc2)N(C)C(=O)[C@H](CCCNC(=N)N)NC(=O)[C@H](Cc2ccc(C(=O)O)cc2)NC(=O)[C@H](Cc2ccccc2)NC(=O)CN(C)C1=O` [Myostatin_99_v28] ({CH2CO}-AA[Trp(7-aza)]Y[NMeF]I[Sar]F[Phe(4-COOH)]R[NMeF]L[NMeA][NMeF][dC]G[dE]G[dK]-OH; thioether N-15): the inhibition at 0.03 µM in assay [1] was determined as 0%; in assay [2] it was 69%. Moreover, the inhibition at 0.1 µM in assay [1] was found to be 20%; in assay [2], 92%.

As to `CC[C@H](C)[C@@H]1NC(=O)[C@H](Cc2ccccc2)N(C)C(=O)[C@H](Cc2ccc(O)cc2)NC(=O)[C@H](Cc2c[nH]c3ncccc23)NC(=O)[C@H](C)NC(=O)[C@H](C)NC(=O)CSC[C@H](C(=O)NCC(=O)N[C@H](CCC(=O)O)C(=O)NCC(=O)N[C@H](CCCCN)C(=O)O)NC(=O)[C@H](Cc2ccccc2)N(C)C(=O)[C@H](C)N(C)C(=O)[C@H](CC(C)C)NC(=O)[C@H](Cc2ccccc2)N(C)C(=O)[C@H](CCCNC(=N)N)NC(=O)[C@H](Cc2ccc(C(=O)O)cc2)NC(=O)[C@H](Cc2ccncc2)NC(=O)CN(C)C1=O` [Myostatin_99_v29] ({CH2CO}-AA[Trp(7-aza)]Y[NMeF]I[Sar][4Pal][Phe(4-COOH)]R[NMeF]L[NMeA][NMeF][dC]G[dE]G[dK]-OH; thioether N-15), in assay [1], the inhibition at 0.03 µM turned out to be 0% and the inhibition at 0.1 µM is 0%. In addition, in assay [2], the inhibition at 0.03 µM was 57% and the inhibition at 0.1 µM is 81%.

Turning to `CC[C@H](C)[C@@H]1NC(=O)[C@H](Cc2ccccc2)N(C)C(=O)[C@H](Cc2ccc(O)cc2)NC(=O)[C@H](Cc2c[nH]c3ncccc23)NC(=O)[C@H](C)NC(=O)CN(CCCC(=O)O)C(=O)CSC[C@H](C(=O)NCC(=O)N[C@H](CCC(=O)O)C(=O)NCC(=O)N[C@H](CCCCN)C(=O)O)NC(=O)[C@H](Cc2ccccc2)N(C)C(=O)[C@H](C)N(C)C(=O)[C@H](CC(C)C)NC(=O)[C@H](Cc2ccccc2)N(C)C(=O)[C@H](CCCNC(=N)N)NC(=O)[C@H](Cc2ccc(C(=O)O)cc2)NC(=O)[C@H](Cc2ccccc2)NC(=O)CN(C)C1=O` [Myostatin_99_v30] ({CH2CO}-[Gly(N(CH2)3COOH)]A[Trp(7-aza)]Y[NMeF]I[Sar]F[Phe(4-COOH)]R[NMeF]L[NMeA][NMeF][dC]G[dE]G[dK]-OH; thioether N-15), in assay [1], the inhibition at 0.03 µM stood at 0% and the inhibition at 0.1 µM came out at 0%. In assay [2], the inhibition at 0.03 µM turned out to be 31% and the inhibition at 0.1 µM stood at 60%.

As for `CC[C@H](C)[C@@H]1NC(=O)[C@H](Cc2ccccc2)N(C)C(=O)[C@H](Cc2ccc(O)cc2)NC(=O)[C@H](Cc2c[nH]c3ccccc23)NC(=O)[C@H](C)NC(=O)CN(CCCC(=O)O)C(=O)CSC[C@H](C(=O)N[C@H](CO)C(=O)N[C@H](CO)C(=O)N[C@H](CO)C(=O)N[C@H](CCCCN)C(=O)O)NC(=O)[C@H](Cc2ccccc2)N(C)C(=O)[C@H](C)N(C)C(=O)[C@H](CC(C)C)NC(=O)[C@H](Cc2ccccc2)N(C)C(=O)[C@H](CCCNC(=N)N)NC(=O)[C@H](Cc2ccc(C(=O)O)cc2)NC(=O)[C@H](Cc2ccc(O)cc2)NC(=O)CN(C)C1=O` [Myostatin_99_v34] ({CH2CO}-[Gly(N(CH2)3COOH)]AWY[NMeF]I[Sar]Y[Phe(4-COOH)]R[NMeF]L[NMeA][NMeF][dC][dS][dS][dS][dK]-OH; thioether N-15), the inhibition at 0.03 µM turned out to be 0% in assay [1] and 65% in assay [2]. In addition, the inhibition at 0.1 µM turned out to be 32% in assay [1] and 89% in assay [2].

For the molecule `CC[C@H](C)[C@@H]1NC(=O)[C@H](Cc2ccccc2)N(C)C(=O)[C@H](Cc2ccc(O)cc2)NC(=O)[C@H](Cc2c[nH]c3ncccc23)NC(=O)[C@H](C)NC(=O)[C@H](C)NC(=O)CSC[C@H](C(=O)N[C@H](CO)C(=O)N[C@H](CO)C(=O)N[C@H](CO)C(=O)N[C@H](CCCCN)C(=O)O)NC(=O)[C@H](Cc2ccccc2)N(C)C(=O)[C@H](C)N(C)C(=O)[C@H](CC(C)C)NC(=O)[C@H](Cc2ccccc2)N(C)C(=O)[C@H](CCCNC(=N)N)NC(=O)[C@H](Cc2ccc(C(=O)O)cc2)NC(=O)[C@H](Cc2ccccc2)NC(=O)CN(C)C1=O` [Myostatin_99_v35] ({CH2CO}-AA[Trp(7-aza)]Y[NMeF]I[Sar]F[Phe(4-COOH)]R[NMeF]L[NMeA][NMeF][dC][dS][dS][dS][dK]-OH; thioether N-15), in assay [1], the inhibition at 0.03 µM was determined as 13% and the inhibition at 0.1 µM worked out at 36%. Besides, in assay [2], the inhibition at 0.03 µM stood at 95% and the inhibition at 0.1 µM worked out at 100%.

With `CC[C@H](C)[C@@H]1NC(=O)[C@H](Cc2ccccc2)N(C)C(=O)[C@H](Cc2ccc(O)cc2)NC(=O)[C@H](Cc2c[nH]c3ncccc23)NC(=O)[C@H](C)NC(=O)[C@H](C)NC(=O)CSC[C@H](C(=O)N[C@H](CO)C(=O)N[C@H](CO)C(=O)N[C@H](CO)C(=O)N[C@H](CCCCN)C(=O)O)NC(=O)[C@H](Cc2ccccc2)N(C)C(=O)[C@H](C)N(C)C(=O)[C@H](CC(C)C)NC(=O)[C@H](Cc2ccccc2)N(C)C(=O)[C@H](CCCNC(=N)N)NC(=O)[C@H](Cc2ccc(C(=O)O)cc2)NC(=O)[C@H](Cc2ccncc2)NC(=O)CN(C)C1=O` [Myostatin_99_v36] ({CH2CO}-AA[Trp(7-aza)]Y[NMeF]I[Sar][4Pal][Phe(4-COOH)]R[NMeF]L[NMeA][NMeF][dC][dS][dS][dS][dK]-OH; thioether N-15), the inhibition at 0.03 µM in assay [1] turned out to be 2%; in assay [2] it was 92%. Moreover, the figures for the inhibition at 0.1 µM in assay [1] and in assay [2] were 18% and 98%, respectively.
